Source: ChEMBL document CHEMBL5058649, “Data for DCP probe BAY 1816032” (2022)

Columns and labels:
[1] = target: MAP/microtubule affinity-regulating kinase 4 (Homo sapiens) (UniProt Q96L34); test: MARK4 DiscoveRx kinase panel; settings: Compound concentration 1.0 uM
[2] = target: Death-associated protein kinase 1 (Homo sapiens) (UniProt P53355); test: DAPK1 DiscoveRx kinase panel; settings: Compound concentration 1.0 uM
[3] = target: Mitogen-activated protein kinase kinase kinase kinase 3 (Homo sapiens) (UniProt Q8IVH8); test: MAP4K3 DiscoveRx kinase panel; settings: Compound concentration 1.0 uM
[4] = target: Dual specificity tyrosine-phosphorylation-regulated kinase 2 (Homo sapiens) (UniProt Q92630); test: DYRK2 DiscoveRx kinase panel; settings: Compound concentration 1.0 uM
Sequence of Dual specificity tyrosine-phosphorylation-regulated kinase 2 (Homo sapiens) (Q92630 whole entry): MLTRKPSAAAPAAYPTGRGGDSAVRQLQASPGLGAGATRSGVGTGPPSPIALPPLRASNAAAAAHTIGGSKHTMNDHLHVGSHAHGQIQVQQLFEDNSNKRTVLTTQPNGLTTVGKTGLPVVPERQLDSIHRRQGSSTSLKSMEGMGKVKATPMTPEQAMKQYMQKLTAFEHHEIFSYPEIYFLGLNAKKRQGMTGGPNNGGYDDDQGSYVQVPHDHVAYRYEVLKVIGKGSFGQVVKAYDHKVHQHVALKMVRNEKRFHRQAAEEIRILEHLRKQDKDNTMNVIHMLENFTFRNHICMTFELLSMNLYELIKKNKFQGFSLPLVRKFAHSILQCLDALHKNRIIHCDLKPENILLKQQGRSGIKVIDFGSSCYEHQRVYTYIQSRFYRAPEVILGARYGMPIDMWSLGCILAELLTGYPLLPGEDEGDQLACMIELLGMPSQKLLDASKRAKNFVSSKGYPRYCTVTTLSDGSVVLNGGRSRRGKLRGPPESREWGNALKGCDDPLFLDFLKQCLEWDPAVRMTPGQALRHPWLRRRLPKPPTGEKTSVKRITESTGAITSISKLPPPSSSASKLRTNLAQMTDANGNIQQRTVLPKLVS

[5] = target: Gamma-aminobutyric acid type B receptor subunit 1 (Homo sapiens) (UniProt Q9UBS5); test: Inhibition of GABAB1A at compound concentration of 10.0 uM in the Eurofins-Panlabs radioligand binding assay (Eurofins_assay_228610); set-up: ligand concentration 4 nM; settings: Compound concentration 10.0 uM
[6] = target: Sodium-dependent dopamine transporter (Homo sapiens, UniProt Q01959); test: GPCRScan assay: inhibition of DAT; set-up: radioligand conc. used [nm] 3.6 – 16.0, parental cells stable HEK
Sequence of Sodium-dependent dopamine transporter (Q01959 whole entry): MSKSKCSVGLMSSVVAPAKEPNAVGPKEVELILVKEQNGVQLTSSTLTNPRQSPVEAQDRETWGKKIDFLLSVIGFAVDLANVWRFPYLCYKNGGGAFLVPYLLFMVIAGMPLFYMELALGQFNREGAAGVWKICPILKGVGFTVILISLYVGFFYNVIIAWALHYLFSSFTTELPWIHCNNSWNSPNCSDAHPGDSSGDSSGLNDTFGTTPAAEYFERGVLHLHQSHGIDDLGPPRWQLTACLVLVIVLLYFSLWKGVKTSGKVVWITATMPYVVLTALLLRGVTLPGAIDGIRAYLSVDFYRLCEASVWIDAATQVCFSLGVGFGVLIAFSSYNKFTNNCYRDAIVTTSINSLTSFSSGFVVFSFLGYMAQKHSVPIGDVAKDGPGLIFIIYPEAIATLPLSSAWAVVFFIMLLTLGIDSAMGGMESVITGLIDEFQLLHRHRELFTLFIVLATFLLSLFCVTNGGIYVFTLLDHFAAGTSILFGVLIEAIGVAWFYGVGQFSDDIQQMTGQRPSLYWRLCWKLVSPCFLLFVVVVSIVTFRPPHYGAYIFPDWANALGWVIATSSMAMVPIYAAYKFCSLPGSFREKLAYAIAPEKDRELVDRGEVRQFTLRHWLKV

[7] = target: Dual specificity protein kinase CLK1 (Homo sapiens) (UniProt P49759); test: CLK1 DiscoveRx kinase panel; settings: Compound concentration 1.0 uM
[8] = target: Serine/threonine-protein kinase OSR1 (Homo sapiens) (UniProt O95747); test: OSR1 DiscoveRx kinase panel; settings: Compound concentration 1.0 uM
[9] = target: Serine/threonine-protein kinase 4 (Homo sapiens) (UniProt Q13043); test: MST1 DiscoveRx kinase panel; settings: Compound concentration 1.0 uM
[10] = target: Protein kinase C delta type (Homo sapiens) (UniProt Q05655); test: PRKCD DiscoveRx kinase panel; settings: Compound concentration 1.0 uM
[11] = target: Sigma intracellular receptor 2 (Homo sapiens, UniProt Q5BJF2); settings: Compound concentration 10.0 uM
[12] = target: Serine/threonine-protein kinase WNK4 (Homo sapiens) (UniProt Q96J92); test: WNK4 DiscoveRx kinase panel; settings: Compound concentration 1.0 uM
[13] = target: Tyrosine-protein kinase JAK1 (Homo sapiens) (UniProt P23458); test: JAK1(JH2domain-pseudokinase) DiscoveRx kinase panel; settings: Compound concentration 1.0 uM
[14] = target: Serine/threonine-protein kinase 17B (Homo sapiens) (UniProt O94768); test: DRAK2 DiscoveRx kinase panel; settings: Compound concentration 1.0 uM
[15] = target: Casein kinase I isoform alpha-like (Homo sapiens) (UniProt Q8N752); test: CSNK1A1L DiscoveRx kinase panel; settings: Compound concentration 1.0 uM
[16] = target: Serine/threonine-protein kinase N1 (Homo sapiens) (UniProt Q16512); test: PKN1 DiscoveRx kinase panel; settings: Compound concentration 1.0 uM
Sequence of Serine/threonine-protein kinase N1 (Homo sapiens) (Q16512 2-942 limits assumed): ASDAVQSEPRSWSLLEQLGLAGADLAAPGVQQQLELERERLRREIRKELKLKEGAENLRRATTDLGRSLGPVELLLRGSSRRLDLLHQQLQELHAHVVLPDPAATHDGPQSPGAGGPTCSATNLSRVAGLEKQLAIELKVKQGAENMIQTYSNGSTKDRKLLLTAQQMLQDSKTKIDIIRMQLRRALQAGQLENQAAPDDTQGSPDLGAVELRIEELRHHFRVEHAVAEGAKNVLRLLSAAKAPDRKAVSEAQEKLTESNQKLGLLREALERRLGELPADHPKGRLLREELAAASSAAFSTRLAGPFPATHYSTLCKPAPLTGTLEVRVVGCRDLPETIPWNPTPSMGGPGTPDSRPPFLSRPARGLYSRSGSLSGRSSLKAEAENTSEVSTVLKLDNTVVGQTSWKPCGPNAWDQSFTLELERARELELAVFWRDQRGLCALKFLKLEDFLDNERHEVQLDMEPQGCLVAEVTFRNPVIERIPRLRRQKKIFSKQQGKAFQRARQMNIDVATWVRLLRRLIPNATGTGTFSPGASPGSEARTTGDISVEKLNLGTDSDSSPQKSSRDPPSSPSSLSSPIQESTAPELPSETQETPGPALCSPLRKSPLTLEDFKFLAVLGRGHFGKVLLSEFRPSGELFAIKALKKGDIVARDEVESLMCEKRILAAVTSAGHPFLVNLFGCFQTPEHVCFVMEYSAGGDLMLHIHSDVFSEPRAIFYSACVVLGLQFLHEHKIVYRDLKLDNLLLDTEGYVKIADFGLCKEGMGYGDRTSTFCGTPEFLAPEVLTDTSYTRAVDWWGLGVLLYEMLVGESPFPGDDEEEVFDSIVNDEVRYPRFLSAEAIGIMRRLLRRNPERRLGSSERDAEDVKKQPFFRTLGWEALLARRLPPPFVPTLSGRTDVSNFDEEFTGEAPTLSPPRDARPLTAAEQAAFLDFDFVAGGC

Caco-2 = test: Caco2 cell line Proliferation assay; type: functional, Homo sapiens; settings: time 4 day
[17] = target: Serine/threonine-protein kinase Nek3 (Homo sapiens) (UniProt P51956); test: NEK3 DiscoveRx kinase panel; settings: Compound concentration 1.0 uM
[18] = target: Serine/threonine-protein kinase TBK1 (Homo sapiens) (UniProt Q9UHD2); test: TBK1 DiscoveRx kinase panel; settings: Compound concentration 1.0 uM
[19] = target: 3-phosphoinositide-dependent protein kinase 1 (Homo sapiens) (UniProt O15530); test: PDPK1 DiscoveRx kinase panel; settings: Compound concentration 1.0 uM
[20] = target: Prostaglandin G/H synthase 1 (Homo sapiens) (UniProt P23219); test: Inhibition of Cyclooxygenase COX-1 at compound concentration of 10.0 uM in the Eurofins-Panlabs enzyme assay (Eurofins_assay_116020); settings: Compound concentration 10.0 uM
Sequence of Prostaglandin G/H synthase 1 (Homo sapiens) (P23219 whole entry, canonical isoform): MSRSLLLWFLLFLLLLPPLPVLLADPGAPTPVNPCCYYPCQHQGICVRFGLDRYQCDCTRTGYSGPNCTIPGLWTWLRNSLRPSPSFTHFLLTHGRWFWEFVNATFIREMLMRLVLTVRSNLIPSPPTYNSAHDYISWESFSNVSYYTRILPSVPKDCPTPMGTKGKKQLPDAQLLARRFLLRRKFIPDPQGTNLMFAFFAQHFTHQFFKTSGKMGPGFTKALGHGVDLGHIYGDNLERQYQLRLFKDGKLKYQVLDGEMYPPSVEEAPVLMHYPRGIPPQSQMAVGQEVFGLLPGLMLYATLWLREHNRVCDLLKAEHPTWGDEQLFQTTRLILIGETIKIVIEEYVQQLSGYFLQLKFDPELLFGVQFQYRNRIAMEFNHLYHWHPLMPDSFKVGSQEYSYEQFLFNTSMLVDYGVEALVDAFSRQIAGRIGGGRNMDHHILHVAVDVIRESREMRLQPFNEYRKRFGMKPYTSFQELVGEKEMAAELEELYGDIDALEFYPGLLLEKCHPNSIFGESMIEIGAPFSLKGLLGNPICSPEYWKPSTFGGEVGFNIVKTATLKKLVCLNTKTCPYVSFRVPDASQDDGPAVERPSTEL

[21] = target: Casein kinase I isoform gamma-1 (Homo sapiens) (UniProt Q9HCP0); test: CSNK1G1 DiscoveRx kinase panel; settings: Compound concentration 1.0 uM
[22] = target: Mitogen-activated protein kinase kinase kinase 4 (Homo sapiens) (UniProt Q9Y6R4); test: MAP3K4 DiscoveRx kinase panel; settings: Compound concentration 1.0 uM
[23] = target: Serine/threonine-protein kinase SIK1 (Homo sapiens) (UniProt P57059); test: SIK DiscoveRx kinase panel; settings: Compound concentration 1.0 uM
[24] = target: Muscarinic acetylcholine receptor M3 (Homo sapiens) (UniProt P20309); settings: Compound concentration 10.0 uM
[25] = target: D(3) dopamine receptor (Homo sapiens) (UniProt P35462); settings: Compound concentration 10.0 uM
[26] = target: Homeodomain-interacting protein kinase 3 (Homo sapiens) (UniProt Q9H422); test: HIPK3 DiscoveRx kinase panel; settings: Compound concentration 1.0 uM
[27] = target: Calcium/calmodulin-dependent protein kinase kinase 2 (Homo sapiens) (UniProt Q96RR4); test: CAMKK2 DiscoveRx kinase panel; settings: Compound concentration 1.0 uM
[28] = target: Serine/threonine-protein kinase 38 (Homo sapiens) (UniProt Q15208); test: NDR1 DiscoveRx kinase panel; settings: Compound concentration 1.0 uM
[29] = target: Serine/threonine-protein kinase MRCK alpha (Homo sapiens) (UniProt Q5VT25); test: MRCKA DiscoveRx kinase panel; settings: Compound concentration 1.0 uM
[30] = target: Rhodopsin kinase GRK1 (Homo sapiens) (UniProt Q15835); test: GRK1 DiscoveRx kinase panel; settings: Compound concentration 1.0 uM
[31] = target: Fibroblast growth factor receptor 4 (Homo sapiens) (UniProt P22455); test: FGFR4 DiscoveRx kinase panel; settings: Compound concentration 1.0 uM
Sequence of Fibroblast growth factor receptor 4 (Homo sapiens) (P22455 22-802 limits assumed): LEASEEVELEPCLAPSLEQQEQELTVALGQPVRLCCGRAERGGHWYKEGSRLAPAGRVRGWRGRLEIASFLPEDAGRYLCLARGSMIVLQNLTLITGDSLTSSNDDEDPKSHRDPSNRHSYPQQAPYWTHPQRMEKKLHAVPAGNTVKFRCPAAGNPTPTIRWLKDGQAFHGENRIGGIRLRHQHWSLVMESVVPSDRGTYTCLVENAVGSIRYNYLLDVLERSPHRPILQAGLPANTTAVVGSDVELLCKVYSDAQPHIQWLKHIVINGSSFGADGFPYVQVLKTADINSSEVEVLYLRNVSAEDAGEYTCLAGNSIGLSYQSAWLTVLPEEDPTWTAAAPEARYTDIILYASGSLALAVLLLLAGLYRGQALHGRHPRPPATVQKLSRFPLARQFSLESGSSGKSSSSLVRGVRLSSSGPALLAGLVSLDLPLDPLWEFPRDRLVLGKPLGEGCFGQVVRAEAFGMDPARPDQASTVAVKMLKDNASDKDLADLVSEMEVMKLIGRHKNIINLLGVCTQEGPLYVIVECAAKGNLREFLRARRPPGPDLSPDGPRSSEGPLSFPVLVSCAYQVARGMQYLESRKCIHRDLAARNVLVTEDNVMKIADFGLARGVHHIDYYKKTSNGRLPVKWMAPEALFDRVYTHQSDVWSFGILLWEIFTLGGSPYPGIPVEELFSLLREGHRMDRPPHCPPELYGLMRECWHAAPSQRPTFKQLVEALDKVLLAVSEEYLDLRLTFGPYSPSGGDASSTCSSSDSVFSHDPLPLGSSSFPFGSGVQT

[32] = target: Mitogen-activated protein kinase kinase kinase kinase 2 (Homo sapiens) (UniProt Q12851); test: MAP4K2 DiscoveRx kinase panel; settings: Compound concentration 1.0 uM
[33] = target: Tyrosine-protein kinase Fes/Fps (Homo sapiens) (UniProt P07332); test: FES DiscoveRx kinase panel; settings: Compound concentration 1.0 uM
[34] = target: Serine/threonine-protein kinase DCLK2 (Homo sapiens) (UniProt Q8N568); test: DCAMKL2 DiscoveRx kinase panel; settings: Compound concentration 1.0 uM
[35] = target: Ephrin type-A receptor 2 (Homo sapiens) (UniProt P29317); test: EPHA2 DiscoveRx kinase panel; settings: Compound concentration 1.0 uM
[36] = target: Calcium/calmodulin-dependent protein kinase type 1 (Homo sapiens) (UniProt Q14012); test: CAMK1 DiscoveRx kinase panel; settings: Compound concentration 1.0 uM
[37] = target: Phosphodiesterase 3 (Homo sapiens) (UniProt Q14432+Q13370); test: Inhibition of Phosphodiesterase PDE3 at compound concentration of 10.0 uM in the Eurofins-Panlabs enzyme assay (Eurofins_assay_152000); type: protein assay; set-up: substrate with concentration 1.01 uM [3H] cAMP + cAMP, incubation time 20 min, incubation temperature 25 C; settings: Compound concentration 10.0 uM
[38] = target: Serine/threonine-protein kinase Nek4 (Homo sapiens) (UniProt P51957); test: NEK4 DiscoveRx kinase panel; settings: Compound concentration 1.0 uM
[39] = target: MAP kinase-interacting serine/threonine-protein kinase 1 (Homo sapiens) (UniProt Q9BUB5); test: MKNK1 DiscoveRx kinase panel; settings: Compound concentration 1.0 uM
Sequence of MAP kinase-interacting serine/threonine-protein kinase 1 (Homo sapiens) (Q9BUB5 whole entry, looked up): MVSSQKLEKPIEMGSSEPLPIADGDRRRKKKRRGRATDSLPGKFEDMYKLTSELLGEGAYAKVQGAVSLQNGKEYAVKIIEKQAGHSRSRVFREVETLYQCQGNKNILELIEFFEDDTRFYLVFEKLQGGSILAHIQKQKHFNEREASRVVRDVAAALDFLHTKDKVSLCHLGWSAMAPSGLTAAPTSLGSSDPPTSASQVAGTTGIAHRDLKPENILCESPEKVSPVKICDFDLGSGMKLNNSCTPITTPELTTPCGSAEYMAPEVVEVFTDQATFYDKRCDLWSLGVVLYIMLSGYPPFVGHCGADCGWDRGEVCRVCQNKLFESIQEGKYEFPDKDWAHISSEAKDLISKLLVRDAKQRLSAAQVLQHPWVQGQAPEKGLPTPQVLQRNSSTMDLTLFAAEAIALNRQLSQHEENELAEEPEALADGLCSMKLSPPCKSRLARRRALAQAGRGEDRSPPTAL

[40] = target: Cyclin-dependent kinase 4 (Homo sapiens) (UniProt P11802); test: CDK4 DiscoveRx kinase panel; settings: Compound concentration 1.0 uM
[41] = target: Inhibitor of nuclear factor kappa-B kinase subunit beta (Homo sapiens) (UniProt O14920); test: IKK-beta DiscoveRx kinase panel; settings: Compound concentration 1.0 uM
[42] = target: Cyclin-dependent kinase 2 (Homo sapiens) (UniProt P24941); test: CDK2 DiscoveRx kinase panel; settings: Compound concentration 1.0 uM
[43] = target: SRSF protein kinase 3 (Homo sapiens) (UniProt Q9UPE1); test: SRPK3 DiscoveRx kinase panel; settings: Compound concentration 1.0 uM
[44] = target: Serine/threonine-protein kinase MRCK beta (Homo sapiens) (UniProt Q9Y5S2); test: MRCKB DiscoveRx kinase panel; settings: Compound concentration 1.0 uM
Rattus norvegicus = species: Rattus norvegicus; settings: Compound concentration 10.0 uM
[45] = target: Serine/threonine-protein kinase SIK3 (Homo sapiens) (UniProt Q9Y2K2); test: QSK DiscoveRx kinase panel; settings: Compound concentration 1.0 uM
[46] = target: Serine/threonine-protein kinase Sgk1 (Homo sapiens) (UniProt O00141); test: SGK DiscoveRx kinase panel; settings: Compound concentration 1.0 uM
Sequence of Serine/threonine-protein kinase Sgk1 (Homo sapiens) (O00141 whole entry): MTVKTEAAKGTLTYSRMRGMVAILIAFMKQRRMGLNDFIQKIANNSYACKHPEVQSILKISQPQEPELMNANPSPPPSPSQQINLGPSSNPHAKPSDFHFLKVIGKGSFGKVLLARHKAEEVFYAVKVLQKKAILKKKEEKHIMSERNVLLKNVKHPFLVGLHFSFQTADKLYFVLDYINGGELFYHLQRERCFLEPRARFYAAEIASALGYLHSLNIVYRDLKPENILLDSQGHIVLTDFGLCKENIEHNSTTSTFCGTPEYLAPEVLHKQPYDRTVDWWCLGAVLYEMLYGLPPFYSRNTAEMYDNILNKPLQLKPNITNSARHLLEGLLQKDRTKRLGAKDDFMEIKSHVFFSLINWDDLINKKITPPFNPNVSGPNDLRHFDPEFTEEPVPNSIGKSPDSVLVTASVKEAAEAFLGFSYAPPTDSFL

[47] = target: Proto-oncogene tyrosine-protein kinase Src (Homo sapiens) (UniProt P12931); test: SRC DiscoveRx kinase panel; settings: Compound concentration 1.0 uM
Sequence of Proto-oncogene tyrosine-protein kinase Src (Homo sapiens) (P12931 2-536 limits assumed): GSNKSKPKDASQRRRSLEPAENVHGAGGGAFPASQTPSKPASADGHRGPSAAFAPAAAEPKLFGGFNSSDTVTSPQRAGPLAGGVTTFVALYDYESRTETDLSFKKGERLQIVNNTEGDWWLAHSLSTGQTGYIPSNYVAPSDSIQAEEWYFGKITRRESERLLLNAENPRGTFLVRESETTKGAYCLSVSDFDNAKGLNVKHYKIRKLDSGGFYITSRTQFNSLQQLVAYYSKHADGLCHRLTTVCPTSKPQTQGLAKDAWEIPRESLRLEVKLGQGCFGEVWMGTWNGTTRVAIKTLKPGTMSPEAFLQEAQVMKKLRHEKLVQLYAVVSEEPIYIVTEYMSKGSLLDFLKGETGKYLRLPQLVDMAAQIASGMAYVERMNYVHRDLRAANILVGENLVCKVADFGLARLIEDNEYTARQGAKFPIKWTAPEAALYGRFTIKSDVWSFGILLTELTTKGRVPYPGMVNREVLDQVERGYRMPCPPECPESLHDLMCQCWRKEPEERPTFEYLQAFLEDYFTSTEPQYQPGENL

`COc1cnccc1Nc1nc(-c2nn(Cc3c(F)cc(OCCO)cc3F)c3ccccc23)ncc1OC` gave a residual activity [1] of 100%, a residual activity [2] of 100% and a residual activity [3] of 100%. It also gave a residual activity [4] of 100%, an inhibition [5] of -2% and a pKi [6] of under 5. The Ki ([6]; read-out: Ki) was over 10 µM, the residual activity [7] was 100% and the residual activity [8] was 100%. The residual activity [9] was 100%, the residual activity [10] was 80% and the inhibition [11] was 13%. The residual activity [12] was 63%, the residual activity [13] was 100% and the residual activity [14] was 83%. The residual activity [15] was 89%, the residual activity [16] was 92% and the “Cell Proliferation IC50” value (Caco-2) was 1 µM. The residual activity [17] was 100%, the residual activity [18] was 94% and the residual activity [19] was 100%. The inhibition [20] was 54%, the residual activity [21] was 74% and the residual activity [22] was 80%. For the same compound, the residual activity [23] was 84%, the inhibition [24] was -5% and the inhibition [25] was 1.89%. The residual activity [26] was 100%, the residual activity [27] was 100% and the residual activity [28] was 98%. It also gave a residual activity [29] of 72%, a residual activity [30] of 100% and a residual activity [31] of 98%. For the same compound, the residual activity [32] was 100%, the residual activity [33] was 80% and the residual activity [34] was 90%. For the same compound, the residual activity [35] was 100%, the residual activity [36] was 52% and the inhibition [37] was 4%. For the same compound, the residual activity [38] was 99%, the residual activity [39] was 100% and the residual activity [40] was 100%. The residual activity [41] was 100%, the residual activity [42] was 89% and the residual activity [43] was 87%. For the same compound, the residual activity [44] was 98%, the inhibition (Rattus norvegicus) was 1% and the residual activity [45] was 100%. The residual activity [46] was 93% and the residual activity [47] was 100%.
